Test results taken from patent US8846946B2, “Germinal alkoxy/alkylspirocyclic substituted tetramate derivatives” (Bayer CropScience AG, priority 2008, dated 2014).

Tests used:
Type in all cases: in vivo
[1] = system: Summer wheat; experiment: Container trials with cereal in a greenhouse, use of safeners (mefenpyr 1 day prior to herbicide application); details: 28 days after application, without safener
Method: Seeds of monocotyledonous and dicotyledonous weed and crop plants are placed in sandy loam in wood fibre pots, covered with soil and cultivated in a greenhouse under good growth conditions. 2 to 3 weeks after sowing, the test plants are treated at the one-leaf stage. The test compounds, formulated as wettable powders (WP), are then, with a water application rate of 600 l/ha (converted), with 0.2% of wetting agent added, sprayed at various dosages onto the green parts of the plants. After the test plants have […], the activity of the preparations is rated visually in comparison to untreated controls (herbicidal activity in percent: 100% activity=the plants have died, 0% activity=like control plants).
If it is additionally to be tested as to whether safeners can improve the plant compatibility of test substances in the case of crop plants, the following options are used for applying the safener: • seeds of the crop plants are, before sowing, dressed with the safener substance (the amount of safener stated in percent, based on the weight of the seed) • before application of the test substances, the crop plants are sprayed with the safener at a certain application rate per hectare (usually 1 day before the application of the test substances) • the safener is applied together with the test substance as a tank mix (the amount of safener stated in g/ha or as a ratio, based on the herbicide). Container Trials with Cereal in a Greenhouse Mefenpyr 1 Day Prior to Herbicide Application

[2] = system: Boophilus microplus; experiment: Boophilus microplus test (BOOPMI injection); details: application rate of 20 μg/animal, injection into the abdomen
Method: (§1) • Solvent: dimethyl sulphoxide
(§2) To prepare a suitable active compound preparation, 1 part by weight of active compound is mixed with the stated amount of solvent, and the concentrate is diluted with water to the desired concentration.
The solution of active compound is injected into the abdomen (Boophilus microplus), and the animals are transferred into dishes and kept in a climatised room. The activity is assessed by […] of fertile eggs.
After the desired period of time, the effect in % is determined. 100% means that none of the ticks has laid any fertile eggs.

[3] = system: Lucilia cuprina larvae; experiment: Lucillia cuprina test (LUCICU); details: application rate of 100 ppm, treated horse meat
Method: as §1, §2
Vessels containing horse meat treated with the active compound preparation of the desired concentration are populated with Lucilia cuprina larvae.
After the desired period of time, the kill in % is determined. 100% means that all of the larvae have been killed; 0% means that none of the larvae have been killed.

SMILES: CCc1cc(C)cc(C)c1C1=C(O)C2(CCC(CC)(OC)CC2)NC1=O (mixture of isomers) [I-a-64]
- Summer wheat observed (%) ([1]; application rate 12.5 g a.i./ha): 20%
- Summer wheat observed (%) ([1]; application rate 25 g a.i./ha): 60%
- Summer wheat observed (%) ([1]; application rate 50 g a.i./ha): 70%

SMILES: CCOC(=O)OC1=C(c2c(C)cc(C)cc2C)C(=O)NC12CCC(C)(OC)CC2 (stereo not drawn) [I-c-3]
- efficacy (no fertile eggs laid) [2]: good efficacy

SMILES: COC1(C)CCC2(CC1)NC(=O)C(c1c(C)cc(Cl)cc1C)=C2O (mixture of isomers) [I-a-3]
- kill in % (larvae killed) [3]: ≥ 80%
- efficacy (no fertile eggs laid) [2]: good efficacy
